Assay results reported in publication PMC11202002, “P18: Novel Anticancer Peptide from Induced Tumor-Suppressing Cells Targeting Breast Cancer and Bone Metastasis” (Cancers, 2024).

How the values were obtained:
PANC1 PDAC cells = experiment: MTT-based cell viability assay; details: 25 μg/mL
Experimental: (§1) Using 96-well plates with approximately 2000 cells per well, an MTT-based metabolic activity assay was performed. The cells were treated with agents and incubated for two days. On the fourth day, they were stained with 0.5 mg/mL thiazolyl blue tetrazolium bromide (M5655, Sigma). The optical density, used to assess metabolic activity, was measured at 562 nm. For the EdU-based proliferation activity assay, the cells were seeded in 96-well plates at about 1000 cells per well. A fluorescence-based cell proliferation kit (Click-iT™, EdU Alexa Fluor™ 488 Imaging Kit; Thermo Fisher, Waltham, MA, USA) was used according to the manufacturer’s instructions.

PANC198 PDAC cells = experiment: MTT-based cell viability assay; details: PANC198 (PAN198); 25 μg/mL
Experimental: as §1

[1] = system: TT2 osteosarcoma cell line; experiment: MTT-based cell viability assay; details: TT2; 25 μg/mL
Experimental: as §1

[2] = system: 4T1.2 mammary tumor cells; experiment: MTT-based cell viability assay; parameters: species or system mouse; details: 25 μg/mL
Experimental: as §1

[3] = system: peripheral blood mononuclear cells; format: cell-based, human
Experimental: as §1

MDA-MB-231 cells [4] = experiment: Scratch-based motility assay; format: cell-based, human; details: 25 µg/mL, 24 h
Experimental: (§2) To evaluate the two-dimensional motility of cancer cells, a wound-healing scratch assay was utilized, and the change in the scratch area was determined. On day 1, ~3 × 10^5 cells were seeded in 12-well plates, and, on day 2, a scratch was made on the cell layer, with the tip of a plastic pipette. Using a light microscope (40×), cell-free zones were imaged after 0 h and 24 h, and the alteration in their areas was quantified by Image J (Version 1.54 f).

MDA-MB-436 cells [5] = experiment: Scratch-based motility assay; format: cell-based, human; details: 25 µg/mL, 24 h
Experimental: as §2

MDA-MB-231 cells [6] = experiment: EdU-based proliferation assay; format: cell-based, human; details: 25 µg/mL
Experimental: as §1

MDA-MB-436 cells [7] = experiment: EdU-based proliferation assay; format: cell-based, human; details: 25 µg/mL
Experimental: as §1

MDA-MB-231 cells [8] = experiment: Transwell invasion assay; format: cell-based, human; details: 25 µg/mL
Experimental: (§3) The invasion capacity of cancer cells in response to ACPs was assessed using 8 µm pore transwell chambers (353182, Thermo Fisher) in a 12-well plate. The chambers were coated with 300 µL Matrigel (100 µg/mL) and filled with 500 µL of the serum-free medium. After washing the chamber three times with the serum-free medium, approximately 7 × 10^4 cells in 300 µL serum-free DMEM were placed in the upper chamber, while 800 µL medium was added to the lower chamber. Cells that migrated to the lower side of the membrane were fixed with methanol and stained with crystal violet. Five random images were captured with an inverted optical microscope at 100× magnification, and the average number of stained cells, representing the invasion capacity, was determined.

MDA-MB-436 cells [9] = experiment: Transwell invasion assay; format: cell-based, human; details: 25 µg/mL
Experimental: as §3

Cdc42 = experiment: FRET-based GTPase activity assay; format: cell-based; details: MDA-MB-231 cells; 25 µg/mL for 3 h
Text: (§4) The three FRET GTPase biosensors were utilized to monitor the activities of Rac1, Cdc42, and RhoA in response to ACPs. GTPase activity was estimated based on the emission ratio of yellow fluorescent protein (YFP) to cyan fluorescent protein (CFP), using a Nikon Ti-E inverted microscope with an EMCCD camera (Photometrics, Tucson, AZ, USA), a filter wheel controller (Sutter Instruments, Novato, CA, USA), and a Nikon Perfect Focus System. To reduce photobleaching, an Intensilight fluorescence illuminator (Nikon, Tokyo, Japan) was employed with a neutral-density 32 filter (3% transmittance). The images were captured with a 40× (0.75 numerical aperture) objective, and they were scaled utilizing the color bar, as previously published.
(§5) This study next investigated the role of P18 in regulating the activity of Rho family GTPases. MDA-MB-231 breast cancer cells were transfected with Rac1, Cdc42, or RhoA biosensors and treated with P18 at a concentration of 25 µg/mL for 3 h. The GTPase activity was assessed by measuring the emission ratio of the biosensor within individual live cells.

Rac1 = experiment: FRET-based GTPase activity assay; format: cell-based; details: MDA-MB-231 cells; 25 µg/mL for 3 h
Text: as §4, §5

RhoA = experiment: FRET-based GTPase activity assay; format: cell-based; details: MDA-MB-231 cells; 25 µg/mL for 3 h
Text: as §4, §5

[10] = system: human triple-negative breast cancer tissue; experiment: Ex vivo cancer tissue assay; format: cell-based; details: 25 µg/mL of P18; four days (96 h); n = 6
Experimental: The usage of human triple-negative breast cancer tissue was approved by the Indiana University Institutional Review Board (1911155674), and the tissues were received from the Indiana University Simon Comprehensive Cancer Center Tissue Procurement Core. Freshly isolated breast cancer tissue (~10 mg) was manually fragmented with a scalpel into small pieces (0.5~0.8 mm in length), which were grown in DMEM with 10% FBS and antibiotics for a day. […] The culture medium, consisting of these agents, was applied for 4 days, and a change in the fragment size was determined.

[11] = system: MDA-MB-231 breast cancer cells; experiment: Western blot analysis; format: cell-based, human; details: 25 µg/mL
Experimental: (§6) Cells were lysed using a RIPA lysis buffer (sc-24948, Santa Cruz Biotech, Dallas, TX, USA) containing protease inhibitors (PIA32963, Thermo Fisher) and phosphatase inhibitors (2006643, Cal-biochem, Billerica, MA, USA). The proteins were separated on 10–15% SDS gels (Bio-Rad Laboratories, Hercules, CA, USA) and transferred to a polyvinylidene difluoride membrane (IPVH00010, Millipore, Billerica, MA, USA). The membrane was incubated with primary antibodies, followed by incubation with secondary antibodies (7074S/7076S, Cell Signaling, Danvers, MA, USA). The antibodies used included those against Snail, p-Src, Src, cleaved caspase 3, caspase 3, RANKL, Cdc42, Col1 and RhoA (Cell Signaling), ALP (Santa Cruz Biotech), OCN (Abcam, Boston, MA, USA), with β-actin (Sigma) as a control. The protein levels were detected using SuperSignal West Femto Maximum Sensitivity Substrate (PI34096, Thermo Fisher) and a luminescent image analyzer (LAS-3000, Fuji Film, Tokyo, Japan).

[12] = system: MDA-MB-436 breast cancer cells; experiment: Western blot analysis; format: cell-based, human; details: 25 µg/mL
Experimental: as §6

Col1, ALP, OCN = experiment: Western blot analysis of osteoblast development proteins; format: cell-based; details: Suppl. Figure S1d
Experimental: as §6

TDYMVGSYGPR [P18] was tested, and the MTT-based viability (PANC1 PDAC cells) was “significantly decreased”, the MTT-based viability (PANC198 PDAC cells) was “significantly decreased” and the MTT-based viability [1] was “significantly decreased”. For the same sequence, the MTT-based viability [2] was “consistently reduced”, the MTT viability [3] was “did not exhibit any significant effects” and the scratch-based motility (MDA-MB-231 cells [4]) was “effectively reduced”. For the same sequence, the scratch-based mobility (MDA-MB-436 cells [5]) was “inhibited”, the EdU-based proliferation (MDA-MB-231 cells [6]) was “decreased” and the EdU-based proliferation (MDA-MB-436 cells [7]) was “inhibited”. The transwell invasion (MDA-MB-231 cells [8]) was “decreased”, the transwell invasion (MDA-MB-436 cells [9]) was “inhibited” and the “Cdc42 GTPase activity (FRET biosensor emission ratio)” value (Cdc42) was “significant decrease”. The “Rac1 GTPase activity (FRET biosensor emission ratio)” value (Rac1) was “no significant change”, the “RhoA GTPase activity (FRET biosensor emission ratio)” value (RhoA) was “significant decrease” and the “size of ex vivo breast tissue fragments” value [10] was “significant decrease in the size”. The “levels of RhoA and Cdc42” value [11] was “slight upregulation”, the “levels of cleaved caspase 3” value [11] was “increasing” and the “levels of p-Src and Snail” value [11] was “downregulated”. For the same sequence, the “levels of RhoA and Cdc42” value [12] was “slight upregulation”, the “levels of cleaved caspase 3” value [12] was “increasing” and the “levels of p-Src and Snail” value [12] was “downregulated”. For the same sequence, the “expression of type I collagen (Col1), alkaline phosphatase (ALP), and osteocalcin (OCN)” value (Col1, ALP, OCN) was “upregulated”.
